Some results are limits rather than exact numbers.

In this test the target is T1, Chk1 (Homo sapiens, UniProt O14757).
T1 construct: purchased Upstate Biotechnology
T1 sequence (O14757 1-476): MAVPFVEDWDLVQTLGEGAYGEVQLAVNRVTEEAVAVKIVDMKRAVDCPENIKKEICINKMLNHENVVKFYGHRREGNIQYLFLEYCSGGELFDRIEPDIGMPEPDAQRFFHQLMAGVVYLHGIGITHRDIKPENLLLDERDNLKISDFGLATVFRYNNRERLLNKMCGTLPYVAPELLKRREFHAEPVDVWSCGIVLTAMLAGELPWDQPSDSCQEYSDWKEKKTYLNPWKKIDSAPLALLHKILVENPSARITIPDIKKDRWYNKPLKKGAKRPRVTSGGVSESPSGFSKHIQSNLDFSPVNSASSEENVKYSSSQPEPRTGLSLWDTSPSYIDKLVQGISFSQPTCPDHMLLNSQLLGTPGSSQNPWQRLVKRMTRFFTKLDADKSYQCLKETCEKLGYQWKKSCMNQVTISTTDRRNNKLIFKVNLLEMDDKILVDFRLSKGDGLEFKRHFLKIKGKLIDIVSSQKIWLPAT
Put plainly: Chk1 kinase assay: incorporation of γ-33P ATP into immobilized myelin basic protein. Format: biochemical. The settings on record: read-out: Chk1 IC50. The gist of the method:
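Immobilized-MBP radiometric kinase assay, room temperature for 1 h; ATP 10 μM (Chk1, 10 nM enzyme) or 30 μM (Chk2, 20 nM enzyme) with 33P tracer. Values are IC50s, with Ki derived from them.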
For `CNC(=O)c1nc(-c2cccc(C(=O)NCc3cc(F)cc(F)c3)c2)cnc1N` [Example 339, 3-amino-6-[3-({[(3,5-difluorophenyl)methyl]amino}carbonyl)phenyl]-N-methylpyrazine-2-carboxamide], the IC50 is less than 50 nM.

For `CNC(=O)c1nc(-c2cccc(C(=O)NCc3cccc(I)c3)c2)cnc1N` [Example 340, 3-amino-6-[3-({[(3-iodophenyl)methyl]amino}carbonyl)phenyl]-N-methylpyrazine-2-carboxamide], the IC50 was less than 50 nM.

Take `CNC(=O)c1nc(-c2cccc(C(=O)NCc3ccccc3N3CCOCC3)c2)cnc1N` [Example 341, 3-amino-N-methyl-6-[3-({[(2-morpholin-4-ylphenyl)methyl]amino}carbonyl)phenyl]pyrazine-2-carboxamide]: the IC50 is 50 to 1000 nM.

As to `CNC(=O)c1nc(-c2cccc(C(=O)NCc3cccc(OCCN4CCOCC4)c3)c2)cnc1N` [Example 342, 3-amino-N-methyl-6-(3-{[({3-[(2-morpholin-4-ylethyl)oxy]phenyl}methyl)amino]carbonyl}phenyl)pyrazine-2-carboxamide], the IC50 was in the range of 50 to 1000 nM.

`CNC(=O)c1nc(-c2cccc(C(=O)NCc3ccc(N4CCOCC4)cc3)c2)cnc1N` [Example 343]: the IC50 lay within 50 to 1000 nM.

Regarding `CNC(=O)c1nc(-c2cccc(C(=O)NCc3cccc(N4CCOCC4)c3)c2)cnc1N` [Example 344, 3-amino-N-methyl-6-[3-({[(3-morpholin-4-ylphenyl)methyl]amino}carbonyl)phenyl]pyrazine-2-carboxamide], the IC50 was 1000 to 10000 nM.

In the case of `CNC(=O)c1nc(-c2cccc(C(=O)NCc3ccc(C(C)C)cc3)c2)cnc1N` [Example 345, 3-amino-N-methyl-6-{3-[({[4-(1-methylethyl)phenyl]methyl}amino)carbonyl]phenyl}pyrazine-2-carboxamide], the IC50 was in the range of 50 to 1000 nM.

Consider `CNC(=O)c1nc(-c2cccc(CNC(=O)COc3ccc(C(C)C)cc3)c2)cnc1N` [Example 346, 3-amino-N-methyl-6-(3-{[({[4-(1-methylethyl)phenyl]oxy}acetyl)amino]methyl}phenyl)pyrazine-2-carboxamide], for which the IC50 is 50 to 1000 nM.

Regarding `CNC(=O)c1nc(-c2cccc(CNC(=O)CSc3ccc(N)cc3)c2)cnc1N` [Example 347, 3-amino-6-{3-[({[(4-aminophenyl)thio]acetyl}amino)methyl]phenyl}-N-methylpyrazine-2-carboxamide], the IC50 was 50 to 1000 nM.

For the molecule `CNC(=O)c1nc(-c2ccc(OC)c(C(=O)NCc3ccccc3)c2)cnc1N` [Example 348, 3-amino-N-methyl-6-(4-(methyloxy)-3-{[(phenylmethyl)amino]carbonyl}phenyl)pyrazine-2-carboxamide], the IC50 is 50 to 1000 nM.

`CNC(=O)c1nc(-c2cncc(C(=O)NCc3ccccc3)c2)cnc1N` [Example 349, 3-amino-N-methyl-6-(5-{[(phenylmethyl)amino]carbonyl}pyridin-3-yl)pyrazine-2-carboxamide]: the IC50 lay in the range of 50 to 1000 nM.

On to `CNC(=O)c1nc(-c2cccc(CNC(=O)c3ccc(I)cc3)c2)cnc1N` [Example 350, 3-amino-6-[3-({[(4-iodophenyl)carbonyl]amino}methyl)phenyl]-N-methylpyrazine-2-carboxamide], for which the IC50 was less than 50 nM.

In the case of `CCCCCc1ccc(C(=O)NCc2cccc(-c3cnc(N)c(C(=O)NC)n3)c2)cc1` [Example 351, 3-amino-N-methyl-6-[3-({[(4-pentylphenyl)carbonyl]amino}methyl)phenyl]pyrazine-2-carboxamide], the IC50 lay in the range of 50 to 1000 nM.

With `CNC(=O)c1nc(-c2cccc(CNC(=O)c3ccc4c(c3)OCO4)c2)cnc1N` [Example 352, 3-amino-6-(3-{[(1,3-benzodioxol-5-ylcarbonyl)amino]methyl}phenyl)-N-methylpyrazine-2-carboxamide], the IC50 lay within 50 to 1000 nM.

These data come from US7704995B2 (Exelixis, Inc., priority 2003, dated 2010).
